Reference: patent US20240158348A1, “HERBICIDAL CYCLIC AMIDES N-SUBSTITUTED WITH A HALOALKYLSULFONYLANILIDE GROUP” (FMC Corporation, priority 2021, published 2024)

Experiments:
Format in all cases: in vivo
[1] = test system: soybean (Glycine max); assay: Test C preemergence, soybean; conditions: 0 is no effect, 100 is complete control
Procedure, shortened: (§1)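 Greenhouse pot test. Compounds in a non-phytotoxic solvent with surfactant were applied to a loam–sand soil mix either preemergence as a directed spray or postemergence to plants at the one- to two-leaf stage; 0–100 visual ratings followed after 10 or 12 days.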

[2] = test system: ragweed (common ragweed, Ambrosia artemisiifolia); assay: Test C postemergence, ragweed; conditions: for Ragweed plant response rating: visual injury, 0 to 100 scale (0 no effect, 100 complete control); for Plant response rating (0 to 100 scale), Ragweed: 0 is no effect, 100 is complete control
Procedure, shortened: as §1

[3] = test system: horseweed (Erigeron canadensis); assay: Test C postemergence, horseweed; conditions: for Horseweed plant response rating: visual injury, 0 to 100 scale (0 no effect, 100 complete control); for Plant response rating (0 to 100 scale), Horseweed: 0 is no effect, 100 is complete control
Procedure, shortened: as §1

[4] = test system: ryegrass, Italian (Italian ryegrass, Lolium multiflorum); assay: Test C preemergence, Italian ryegrass; conditions: 0 is no effect, 100 is complete control
Procedure, shortened: as §1

[5] = test system: sedge, umbrella (small-flower umbrella sedge, Cyperus difformis); assay: Test D flooded paddy test, umbrella sedge; design: key: 0 = no effect, 100 = complete control; conditions: 250 g ai/ha, Flood; applied to paddy water at 2-leaf stage; visual rating after 13 days; scale 0 (no effect) to 100 (complete control)
Procedure, shortened: (§2)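 2-leaf plants; flood 3 cm over soil; cpd into paddy water; depth maintained; greenhouse 13 d; visual rating vs controls, 0 = no effect, 100 = complete control; dash = no result.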

[6] = test system: wheat (Triticum aestivum); assay: Test C postemergence, wheat; conditions: for Wheat plant response rating: visual injury, 0 to 100 scale (0 no effect, 100 complete control); for Plant response rating (0 to 100 scale), Wheat: 0 is no effect, 100 is complete control
Procedure, shortened: as §1

[7] = test system: pigweed, palmer (palmer amaranth, Amaranthus palmeri); assay: Test C preemergence, palmer amaranth; conditions: 0 is no effect, 100 is complete control
Procedure, shortened: as §1

[8] = test system: rice (Oryza sativa); assay: Test D flooded paddy test, rice; design: key: 0 = no effect, 100 = complete control; conditions: 250 g ai/ha, Flood; applied to paddy water at 2-leaf stage; visual rating after 13 days; scale 0 (no effect) to 100 (complete control)
Procedure, shortened: as §2

[9] = test system: corn (Zea mays); assay: Test C postemergence, corn; conditions: for Corn plant response rating: visual injury, 0 to 100 scale (0 no effect, 100 complete control); for Plant response rating (0 to 100 scale), Corn: 0 is no effect, 100 is complete control

| SMILES | Plant response rating (0 to 100 scale), Soybean ([1]; 31 g ai/ha Preemergence) | Plant response rating (0 to 100 scale), Soybean ([1]; 125 g ai/ha Preemergence) | Ragweed plant response rating ([2]; 31 g ai/ha Postemergence) | Plant response rating (0 to 100 scale), Ragweed ([2]; 125 g ai/ha Postemergence) | Horseweed plant response rating ([3]; 31 g ai/ha Postemergence) | Plant response rating (0 to 100 scale), Horseweed ([3]; 125 g ai/ha Postemergence) | Plant response rating (0 to 100 scale), Ryegrass, Italian ([4]; 31 g ai/ha Preemergence) | Plant response rating (0 to 100 scale), Ryegrass, Italian ([4]; 125 g ai/ha Preemergence) | Plant response rating, Sedge, Umbrella [5] | Wheat plant response rating ([6]; 31 g ai/ha Postemergence) | Plant response rating (0 to 100 scale), Wheat ([6]; 125 g ai/ha Postemergence) | Plant response rating (0 to 100 scale), Pigweed, Palmer ([7]; 31 g ai/ha Preemergence) | Plant response rating (0 to 100 scale), Pigweed, Palmer ([7]; 125 g ai/ha Preemergence) | Plant response rating, Rice [8] | Corn plant response rating ([9]; 31 g ai/ha Postemergence) | Plant response rating (0 to 100 scale), Corn ([9]; 125 g ai/ha Postemergence) | Ragweed plant response rating ([2]; 125 g ai/ha Postemergence) | Horseweed plant response rating ([3]; 125 g ai/ha Postemergence) | Wheat plant response rating ([6]; 125 g ai/ha Postemergence) | Corn plant response rating ([9]; 125 g ai/ha Postemergence) |
| --- | --- | --- | --- | --- | --- | --- | --- | --- | --- | --- | --- | --- | --- | --- | --- | --- | --- | --- | --- | --- |
| COC(=O)N(c1cc(N2CCC(OC3CC3)C2=O)c(C)cc1C)S(=O)(=O)C(F)(F)F (stereo not shown) [Compound 16] | 20 | 20 | 80 | 90 | 0 | 30 | 0 | 0 | 0 | 0 | 0 | 0 | 0 | 0 | 0 | 0 | – | – | – | – |
| C=C(C)COC1CCN(c2cc(NS(=O)(=O)C(F)(F)F)c(C)cc2C)C1=O (stereo not shown) [Compound 59] | 60 | 90 | 10 | – | 20 | – | 30 | 100 | 95 | 50 | – | 100 | 100 | 40 | 20 | – | 70 | 80 | 80 | 90 |
| Cc1c(NS(=O)(=O)C(F)(F)F)cc(N2CCC(OC3CCC3)C2=O)c(C)c1C (stereo not shown) [Compound 45] | 50 | 100 | 50 | – | 30 | – | 50 | 90 | 90 | 20 | – | 100 | 100 | 55 | 20 | – | 80 | 90 | 60 | 90 |
| C=CCO/N=C1\CCN(c2cc(NS(=O)(=O)C(F)(F)F)c(C)cc2C)C1=O [Compound 11] | 50 | 90 | 60 | 80 | 20 | 70 | 40 | 90 | 100 | 80 | 90 | 70 | 100 | 45 | 90 | 100 | – | – | – | – |
| CC(=O)N(c1cc(N2CCC(OC3CC3)C2=O)c(C)cc1Cl)S(=O)(=O)C(F)(F)F (stereo not shown) [Compound 38] | 80 | 90 | 80 | – | 90 | 100 | 80 | 100 | 75 | 60 | – | 90 | 100 | 0 | 80 | 90 | 90 | – | 60 | – |
| C#CCO/N=C1\CCN(c2cc(NS(=O)(=O)C(F)(F)F)c(C)cc2C)C1=O [Compound 13, N-[2,4-dimethyl-5-[2-oxo-3-[(2-propyn-1-yloxy)imino]-1-pyrrolidinyl]phenyl]-1,1,1-trifluoromethanesulfonamide] | 80 | 100 | 80 | 90 | 70 | 90 | 40 | 100 | 100 | 90 | 90 | 100 | 100 | 35 | 100 | 100 | – | – | – | – |
| CO/N=C1\CCN(c2cc(NS(=O)(=O)C(F)(F)F)c(C)cc2C)C1=O [Compound 9, 1,1,1-trifluoro-N-[5-[3-(methoxyimino)-2-oxo-1-pyrrolidinyl]-2,4-dimethylphenyl]methanesulfonamide] | 80 | 100 | 70 | 80 | 100 | 100 | 60 | 100 | 85 | 80 | 80 | 100 | 100 | 30 | 90 | 90 | – | – | – | – |
